From paper PMC11054271, “ABCG2 Transports the Flukicide Nitroxynil and Affects Its Biodistribution and Secretion into Milk” (Pharmaceutics, 2024)
Where two headings read alike, the source gives them in different places.

Assays:
bovine ABCG2 = biological target: T1, bovine ABCG2 (Bos taurus, UniProt Q4GZT4); assay: Transepithelial transport assay in MDCK-II cells transduced with bovine ABCG2; type: in vitro ADME; conditions: cattle, MDCK-II bABCG2, nitroxynil 10 µM, no Ko143, read-out: Relative efflux transport ratio (BA/AB)
T1 construct: expressed in transfected cells; host or cells: MDCK-II (canine kidney) subclone generated by the authors' group
T1 sequence (Q4GZT4 1-655): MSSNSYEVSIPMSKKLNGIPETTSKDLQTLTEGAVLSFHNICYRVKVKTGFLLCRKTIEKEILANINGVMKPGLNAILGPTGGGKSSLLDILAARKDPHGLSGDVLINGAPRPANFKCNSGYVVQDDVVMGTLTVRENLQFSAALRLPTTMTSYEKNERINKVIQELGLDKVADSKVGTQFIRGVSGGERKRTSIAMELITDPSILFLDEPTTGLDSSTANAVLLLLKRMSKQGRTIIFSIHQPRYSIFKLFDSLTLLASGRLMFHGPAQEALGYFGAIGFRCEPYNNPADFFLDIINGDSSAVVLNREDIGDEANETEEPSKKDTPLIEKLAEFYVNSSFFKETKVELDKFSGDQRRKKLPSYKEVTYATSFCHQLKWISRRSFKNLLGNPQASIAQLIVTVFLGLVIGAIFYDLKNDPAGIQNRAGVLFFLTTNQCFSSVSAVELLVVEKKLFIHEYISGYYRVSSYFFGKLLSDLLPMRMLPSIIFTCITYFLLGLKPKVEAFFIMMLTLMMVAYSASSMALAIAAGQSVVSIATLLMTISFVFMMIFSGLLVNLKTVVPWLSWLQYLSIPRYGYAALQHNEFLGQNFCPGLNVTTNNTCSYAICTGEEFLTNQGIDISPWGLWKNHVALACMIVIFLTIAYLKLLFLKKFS
Description: Parental Madin–Darby canine kidney epithelial cells (MDCK–II) and their subclones transduced with murine (mAbcg2) and human (hABCG2) variants of ABCG2 were kindly provided by Dr. A. H. Schinkel (Netherlands Cancer Institute). Transduced MDCK–II cells with the ovine (oABCG2) and bovine (bABCG2) variants were previously generated by our group. Cells were cultured as described elsewhere.
Transepithelial transport assays were carried out as previously described with minor variations, using Hanks’ balanced salt solution (Sigma-Aldrich) supplemented with HEPES (25 mM), with or without Ko143 (1 μM), and containing or not nitroxynil 10 μM. […] At the end of the experiment, confluence of the monolayer was measured with the previously described Lucifer Yellow permeability test, with minor modifications. The appearance of nitroxynil in the opposite side of the well was measured by HPLC as later described. Active transport was expressed as relative efflux transport ratio (apically directed transport percentage divided by the basolaterally directed translocation percentage) at 4 h and referred to the initial concentration. […]
Waters 2695 separation module and Waters 2998 UV photodiode array detector set at 270 nm were used for samples analysis. […] Limit of detection (LOD) and quantification (LOQ) were calculated as previously described. […]

murine Abcg2 = assay: Tissue distribution in wild-type and Abcg2−/− male mice; type: in vivo; conditions: 10 mg/kg s.c.
Description: All in vivo experiments were carried out using wild-type and Abcg2^−/− mice aged between 8 and 17 weeks, all of >99% FVB/N genetic background, generated and gently supplied by A. H. Schinkel (Netherlands Cancer Institute). Mice were housed and handled complying with institutional and ARRIVE guidelines and European legislation (EU Directive 2010/63/EU for animal experiments). Additionally, experimental procedures were approved by the Animal Care and Use Committee of the University of León and the Junta de Castilla y León (ULE_011_2019).
For pharmacokinetic experiments, a single dose of nitroxynil at 10 mg/kg was administered subcutaneously to wild-type and Abcg2^−/− male mice (n = 4–5, for each time point). Distomicide® (250 mg/mL) commercial solution was dissolved in saline (sodium chloride 0.9%) and dosed at 200 μL per 30 g body weight. Blood samples were collected at different time points (0.5, 3, 4.5, 6, 24, 48 and 96 h) and heparinized blood samples were centrifugated for 15 min at 3000× g. Organs were also collected at 24 and 96 h after euthanasia. Linear trapezoidal rule was used to calculate the area under the plasma concentration–time curve (AUC) parameter.
Plasma, milk and tissue samples from each animal were individually processed and analyzed without pooling, while samples from transport assays were not processed. Tissue samples were homogenized in a mixture of 50% water/50% methanol HCl 0.5% (v/v); 1 mL solution per 0.1 g tissue. The entire amount of collected milk (74.7–295.1 mg) and 100 μL plasma and tissue homogenates were processed. To each sample, 10 μL of a nitrofurantoin solution (10 μg/mL for plasma and milk and 2 μg/mL for homogenized tissues) was added as an internal standard and 150 μL acetonitrile was used to precipitate the proteins. The mixture was vortexed horizontally for 15 min and centrifugated at 10,000× g for 5 min at 4 °C. Supernatant was transferred to a new tube and dried at 40 °C under N2 stream. Samples were reconstituted in 100 μL of mobile phase and 50 μL was injected into HPLC. Standards were subjected to the same procedures as samples.
Waters 2695 separation module and Waters 2998 UV photodiode array detector set at 270 nm were used for samples analysis. Chromatographic conditions for nitroxynil detection were based on previously described methods, with minor modifications. Chromatographic separation was achieved on a reverse-phase column (Synergy 4 μm Hydro–RP 80 Å, 250 × 4.60 mm; Phenomenex®, Torrance, CA, USA) using an isocratic binary mobile phase consisting of 25 mM potassium phosphate monobasic (KH2PO4), pH 4: acetonitrile (70:30 for culture samples and 80:20 for animal samples) at a flow rate of 1 mL/min. Autosampler and column temperature were 4 °C and 40 °C, respectively. Limit of detection (LOD) and quantification (LOQ) were calculated as previously described. For cell culture samples, LOD and LOQ were 0.003 μg/mL and 0.007 μg/mL, respectively. For in vivo samples, LOD was in the range of 0.01–0.07 μg/mL and LOQ in the range of 0.03–0.15 μg/mL.

efflux ratio at 4 h, 10 µM (bovine ABCG2): 3.25 ± 0.14
Tissue concentration, spleen (murine Abcg2; Abcg2−/− male mice, 96 h): <LOQ
Kp at 96 h (murine Abcg2; FVB/N, mouse, kidney and plasma, sc, Abcg2−/− male mice, 96 h, read-out: Tissue/plasma ratio, kidney): 0.03 ± 0.01
concentration at 24 h (murine Abcg2; FVB/N, mouse, kidney, sc, Abcg2−/− male mice, read-out: Tissue concentration, kidney): 8200 ± 1800 ng/g
concentration at 96 h (murine Abcg2; FVB/N, mouse, kidney, sc, Abcg2−/− male mice, 96 h, read-out: Tissue concentration, kidney): 3500 ± 300 ng/g
concentration at 24 h (murine Abcg2; FVB/N, mouse, liver, sc, Abcg2−/− male mice, read-out: Tissue concentration, liver): 1300 ± 300 ng/g
concentration at 96 h (murine Abcg2; FVB/N, mouse, liver, sc, Abcg2−/− male mice, 96 h, read-out: Tissue concentration, liver): 700 ± 200 ng/g
concentration at 24 h (murine Abcg2; FVB/N, mouse, small intestine, sc, Abcg2−/− male mice, read-out: Levels of nitroxynil in small intestine): 1600 ± 300 ng/mL
concentration at 24 h (murine Abcg2; FVB/N, mouse, small intestine, sc, Abcg2−/− male mice, read-out: Tissue concentration, small intestine): 1600 ± 300 ng/g
concentration at 96 h (murine Abcg2; FVB/N, mouse, small intestine, sc, Abcg2−/− male mice, 96 h, read-out: Tissue concentration, small intestine): 500 ± 100 ng/g
concentration at 24 h (murine Abcg2; FVB/N, mouse, spleen, sc, Abcg2−/− male mice, read-out: Accumulation in spleen): 2500 ± 300 ng/mL
concentration at 24 h (murine Abcg2; FVB/N, mouse, spleen, sc, Abcg2−/− male mice, read-out: Tissue concentration, spleen): 2500 ± 300 ng/g
concentration at 24 h (murine Abcg2; FVB/N, mouse, testis, sc, Abcg2−/− male mice, read-out: Concentration in testis): 4200 ± 800 ng/mL
concentration at 24 h (murine Abcg2; FVB/N, mouse, testis, sc, Abcg2−/− male mice, read-out: Tissue concentration, testis): 4200 ± 800 ng/g
concentration at 96 h (murine Abcg2; FVB/N, mouse, testis, sc, Abcg2−/− male mice, 96 h, read-out: Tissue concentration, testis): 1100 ± 200 ng/g
Brain levels (murine Abcg2; wild-type and Abcg2−/− male mice, 24 and 96 h, almost all samples): below LOQ
SMILES: N#Cc1cc(I)c(O)c([N+](=O)[O-])c1 [nitroxynil]
